Laboratory results taken from patent US20100184770A1, “COMPOUNDS” (Glaxo Group Limited, priority 2006, published 2010).

Experiments:
[1] = tested on: histamine-induced congestion; experiment: Intranasal challenge method: whole body plethysmography; type: in vivo, guinea pigs; details: for inhibition of the response to histamine challenge (PenH AUC): dosed intranasally at 1 mg/ml either 1 hr or 24 hr before histamine challenge
Experimental: Female Dunkin-Hartley guinea pigs 150-250 g are sensitised twice daily for 5 days (week 1) with ovalbumin (OVA) and aluminium hydroxide (Al(OH)3 or Alum) in physiological saline, 25 μl/nostril. Solution is made up at 20 μg/ml OVA, 180 mg/ml Alum. During weeks 2 and 3 animals receive 25 μl/nostril of OVA (5 mg/ml) once daily. During Week 4 guinea pigs will be entered into study but are continually sensitized as per weeks 2 and 3 until the day before dosing with compound or vehicle.
Pretreatment with test compound is performed at various times prior to histamine challenge. Efficacy dose-response curves are determined 1 hr and/or 3 hr after dosing whereas duration of action may be studied up to 7 days post dose. Test compounds are formulated as solutions in 0.9% sterile saline or suspensions in 0.9% sterile saline/tween80.
Guinea pigs were anaesthetised with isoflurane (5%, 2-31/min O2), placed in a supine position, and 25 μl of test compound or vehicle dosed into each nostril using a Gilson pipette. After dosing, animals remain supine for at least 30 seconds during recovery from anaesthesia.
At 30 minutes before the time of histamine challenge, guinea pigs are dosed with atropine sulphate (Sigma A0257, dissolved in saline), 1 mg/kg i.p. Animals are then placed into whole body plethysmograph systems (Buxco® Electronics) where the parameter PenH area under curve (AUC) is recorded as outlined in […], E., SCHWARZE, J., TAKEDA, K., OSHIBA, A., LARSEN, L., IRVIN, C. G. & GELFAND, E. W. (1997) Noninvasive measurement of airway responsiveness in allergic mice using barometric plethysmography. Am. J. Respir. Crit. Care Med. 156, 766-775.
Hamelmann et al. A 10 minute baseline AUC is recorded and if this value is over 1000, the animals are excluded.
After the stipulated pre-dose time has been reached, guinea pigs are re-anaesthetised with isoflurane and dosed with either 10 mM or 15 mM histamine or phosphate-buffered saline (PBS), (25 μl per nostril). On recovery from anaesthesia animals are returned to the individual plethysmograph chambers and 4×10 min consecutive PenH AUC recordings are made. These recordings are summed to give a cumulative AUC over 40 mins post histamine challenge for each animal. Data are analysed using ANOVA with post-hoc Fishers LSD test (general linear models, Statistica®) and finally Hochberg adjustment. Inhibition of histamine-induced congestion is determined by statistically significant differences between the mean responses of compound pre-treated groups compared to the vehicle pre-treated, histamine-challenged group.

human H1 receptor [2] = molecular target: T1, human H1 receptor (Homo sapiens, UniProt P35367); experiment: Histamine H1 functional antagonist assay: determination of functional pKi values (FLIPR); type: cell-based; details: CHO cells expressing human H1 receptor, histamine at EC80, FLIPR, read-out: average pKi (pKb) at H1 (converted)
T1 construct: expressed in transfected cells
T1 sequence (P35367 whole entry): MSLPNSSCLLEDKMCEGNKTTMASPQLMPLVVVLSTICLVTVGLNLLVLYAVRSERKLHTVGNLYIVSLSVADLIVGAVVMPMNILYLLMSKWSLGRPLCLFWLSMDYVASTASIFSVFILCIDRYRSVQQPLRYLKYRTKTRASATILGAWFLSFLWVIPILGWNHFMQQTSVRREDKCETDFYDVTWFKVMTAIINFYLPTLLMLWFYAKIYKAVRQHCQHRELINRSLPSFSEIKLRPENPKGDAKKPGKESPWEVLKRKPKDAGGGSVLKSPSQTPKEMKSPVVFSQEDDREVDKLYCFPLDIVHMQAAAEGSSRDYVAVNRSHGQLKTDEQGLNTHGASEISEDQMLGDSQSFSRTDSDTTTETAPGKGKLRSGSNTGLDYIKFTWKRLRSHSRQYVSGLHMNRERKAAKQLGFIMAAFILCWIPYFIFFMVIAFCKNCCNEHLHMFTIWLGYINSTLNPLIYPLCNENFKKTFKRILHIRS
Experimental: (§1) 1. Generation of Histamine H1 Cell Line The human H1 receptor is cloned using known procedures described in the literature [Biochem. Biophys. Res. Commun., 201(2):894 (1994)]. Chinese hamster ovary (CHO) cells stably expressing the human H1 receptor are generated according to known procedures described in the literature [Br. J. Pharmacol., 117(6):1071 (1996)].
The histamine H1 cell line is seeded into non-coated black-walled clear bottom 384-well tissue culture plates in alpha minimum essential medium (Gibco/Invitrogen, cat no. 22561-021), supplemented with 10% dialysed foetal calf serum (Gibco/Invitrogen cat no. 12480-021) and 2 mM L-glutamine (Gibco/Invitrogen cat no 25030-024) and is maintained overnight at 5% CO2, 37° C.
Excess medium is removed from each well to leave 10 μl. 30 μl loading dye (250 μM Brilliant Black, 2 μM Fluo-4 diluted in Tyrodes buffer+probenecid (145 mM NaCl, 2.5 mM KCl, 10 mM HEPES, 10 mM D-glucose, 1.2 mM MgCl2, 1.5 mM CaCl2, 2.5 mM probenecid, pH adjusted to 7.40 with NaOH 1.0 M)) is added to each well and the plates are incubated for 60 min at 5% CO2, 37° C.
10 μl of test compound, diluted to the required concentration in Tyrodes buffer+probenecid (or 10 μl Tyrodes buffer+probenecid as a control) is added to each well and the plate is incubated for 30 min at 37° C., 5% CO2. The plates are then placed into a FLIPR™ (Molecular. Devices, UK) to monitor cell fluorescence (λex=488 nm, λEM=540 nm) in the manner described in Sullivan et al., (In: Lambert DG (ed.), Calcium Signaling Protocols, New Jersey: Humana Press, 1999, 125-136) before and after the addition of […] at a concentration that results in the final assay concentration of histamine being EC80.
Functional antagonism is indicated by a suppression of histamine induced increase in fluorescence, as measured by the FLIPR™ system (Molecular Devices). By means of concentration effect curves, functional affinities are determined using standard pharmacological mathematical analysis.

human H1 receptor [3] = molecular target: T1, human H1 receptor; experiment: Histamine H1 functional antagonist assay: determination of antagonist duration (washout, FLIPR); type: cell-based; details: at one or more time points after washout
Experimental: as §1
To determine the antagonist duration, cells are cultured overnight in non-coated black-walled clear bottom 96-well tissue culture plates, are washed with PBS and are incubated with a concentration of antagonist chosen to give an approximate DR in the range 30-300. Following the 30 min antagonist incubation period, the cells are washed two or three times with 200 μl of PBS and then 100 μl Tyrodes buffer is added to each well to initiate antagonist dissociation. Following incubation for predetermined times, typically 30-270 min at 37° C., the cells are then washed again with 200 μl PBS and are incubated with 100 Tyrodes buffer containing Brilliant Black, probenecid and Fluo-4 for 45 min at 37° C., as described above. After this period, the cells are challenged with histamine in the FLIPR™ as described above. The dose ratio at each time point is used to determine the fractional H1 receptor occupancy by the following equation: fractional receptor occupancy=(DR-1)/DR. The decrease in receptor occupancy over time approximates to a straight line and is analysed by linear regression. The slope of this straight line fit is used as an index of the dissociation rate of the antagonist. The dose ratios for antagonist treated cells and for antagonist treated and washed cells at each time point are used to calculate a relative dose ratio (rel DR) which is also used as an index of antagonist duration. Antagonists with long duration of action produce rel DR values close to 1, and antagonists with short duration of action produce rel DR values that approaches the dose ratio value obtained for antagonist treatment alone.

Structure (SMILES)	inhibition of the response to histamine challenge (PenH AUC) [1]	Ki (human H1 receptor [2]) [nM]	duration of action compared with azelastine in the histamine H1 functional antagonist assay (human H1 receptor [3])	inhibition of the response to histamine challenge (PenH AUC), 3 hr timepoint ([1]; another experiment, dosed intranasally at 1 mg/ml and at 10 mg/ml 3 hr before histamine challenge)	inhibition of the response to histamine challenge (PenH AUC), 24 hr timepoint ([1]; another experiment, dosed intranasally at 1 mg/ml and at 10 mg/ml 24 hr before histamine challenge)
COCCCC(=O)NCCN1CCC[C@@H]1Cn1nc(Cc2ccc(Cl)cc2)c2ccccc2c1=O.O=C(O)C(F)(F)F [Example 34c, N-[2-((2R)-2-{[4-[(4-Chlorophenyl)methyl]-1-oxo-2(1H)-phthalazinyl]methyl}-1-pyrrolidinyl)ethyl]-4-(methyloxy)butanamide, trifluoroacetate salt]	significantly (p<0.05) inhibited the response at both timepoints				
COCCCC(=O)NCCN1CCC[C@@H]1Cn1nc(Cc2ccc(Cl)cc2)c2ccccc2c1=O.Cl [Example 34a, N-[2-((2R)-2-{[4-[(4-Chlorophenyl)methyl]-1-oxo-2(1H)-phthalazinyl]methyl}-1-pyrrolidinyl)ethyl]-4-(methyloxy)butanamide, hydrochloride salt]	significantly (p<0.05) inhibited the response at both timepoints				
CN1CCCC(n2nc(Cc3ccc(Cl)cc3)c3ccccc3c2=O)CC1 (stereo not drawn) [azelastine, reference compound]	failed to show a similar duration of action				
O=C(CC(F)(F)F)NCCN1CCC[C@@H]1Cn1nc(Cc2ccc(Cl)cc2)c2ccccc2c1=O.O=C(O)C(F)(F)F [Example 36b, N-[2-((2R)-2-{[4-[(4-chlorophenyl)methyl]-1-oxo-2(1H)-phthalazinyl]methyl}-1-pyrrolidinyl)ethyl]-3,3,3-trifluoropropanamide, trifluoroacetate]	significantly (p<0.05) inhibited the response at both timepoints	< 31.6	longer duration of action than azelastine		
COCCCC(=O)NCCN1CCC[C@@H]1Cn1nc(Cc2ccc(Cl)cc2)c2ccccc2c1=O [Example 34, N-[2-((2R)-2-{[4-[(4-Chlorophenyl)methyl]-1-oxo-2(1H)-phthalazinyl]methyl}-1-pyrrolidinyl)ethyl]-4-(methyloxy)butanamide]	significantly (p<0.05) inhibited the response at both timepoints			significantly (p<0.05) inhibited the response at the 3 hr timepoint	not the 24 hr timepoint
